Measured values taken from patent US4515785A, “Neem bark extracts” (priority 1980, dated 1985).
Converted amounts (≈) assume the structure as drawn. “And” between values parts separate entries of the source, which are not always exact repeats. Identical values can stand only once. *1 amine or outer side, *2 acyl side, *3 side chain or, on linkers, in order; H or OH if unused. Where a SMILES comes first, the peptide text is derived from it. Bridges are numbered along the chain shown (N, C = ends). Roman numbers before positions name the chains, in order. [ ]: non-standard residue; d: D form. Actinocin(9to1) = Cc1c2oc3c(C)ccc(C(=O)[*:1])c3nc-2c(C(=O)[*:2])c(N)c1=O; NMeV = CN[C@H](C(=O)O)C(C)C; Sar = CNCC(=O)O

Columns and labels:
[1] = tested on: sarcoma 180 ascites tumor; assay: Effects on sarcoma 180 ascites tumor (Test IV); format: in vivo, mouse (ICR); details: Table III; for T/C (TPCV ratio treated/control): 4 days, 7th day
Method: A portion of each of the extraction fractions was suspended or dissolved in 0.5% suspension of carboxymethylcellulose (CMC) in a phosphate buffered saline solution (PBS commercially available from GIBCO Laboratories, containing ca. 9.5 mM phosphate) to a predetermined concentration.
Mouse sarcoma 180 tumor cells which have been subcultivated intraperitoneally in ICR mice were drawn from the mouse together with the ascites and diluted with physiological saline solution to a cell count of 10^8 per ml. The tumor cell suspension thus prepared was transplanted by means of a syringe intraperitoneally into 4 week-old male ICR mice at a dose of 0.1 ml. Consequently, the cell count transplanted per mouse was 1×10^7.
The test material as prepared above was intraperitoneally administered at a dose of 0.1 ml. per mouse for 4 days once a day from the next day of the transplantation of mouse sarcoma 180 tumor cells. A group of 6 mice was employed for each concentration of each test material. […] As a control was administered the CMC-containing PBS as described above only in the same way as above. The dose is expressed as weight per kg. bodyweight of mouse.
On the 7th day of transplantation of the tumor cells the bodyweight of each mouse was measured (X). Then, ascites was thoroughly drawn from the mouse, followed by measurement of the bodyweight (Y). X-Y is taken as the amount of ascites.
The drawn ascites was the introduced into a hematocrit tube and then centrifuged at 15,000 G for 5 minutes using a hematocrit rotor at a low temperature. There was thus made determination of the ascitocrit value, that is, proportion of the cells present in the ascites which corresponded to the hematocrit value in hematology. The value multiplied by volume of the ascites gives the volume of the cells present in the ascites. This is designated as total packed cell volume (TPCV).
Effect on the tumor was rated ineffective (-) when the TPCV ratio of the treated to the control (T/C) was 100-66%, plus 1 (+) when it was 65-41%, plus 2 (++) when it was 40-11%, and plus 3 (+++) when it was 10-0%.

mouse L-5178Y cells = assay: Effects on mouse L-5178Y cells (Test III); format: cell-based; details: 2 days
Method: A medium containing 1×10^5 cells/ml. was prepared using mouse L-5178Y cells cultivated on RPMI-1640 medium containing 10% fetal bovine serum for 3 days. The medium was placed in a 96-well U-type microplate in an amount of 50 μl. per well.
A portion of the test material, which was one of the extracts according to the invention described in the above examples, was dissolved in the medium to a final concentration in the medium as shown in Table II below. The amount of the solution per well was 60 μl. The test material thus prepared was incubated in a carbon-dioxide incubator at 37° C. for 2 days. After completion of the incubation, the cells were collected and counted well by well, and the cell counts were compared with cell count of the control which contained no test material. The cell could of the control was approximately 8.6×10^5 /ml. For activity comparison's sake, the same test was done with mitomycin C (MMC) or bleomycin (BLM). In the table below, T/C represents the ratio of count of the cells treated with the test material to that with no test material added. ID50 is the concentration of the test material required for decreasing concentration of the cells to 1/2 that of the control.
The neem extracts produced in Examples 5-7 above were tested for effects on mouse L-5178Y cells, sarcoma 180 ascites and solid tumors according to the methods described in Tests II-IV.

sarcoma 180 solid tumor = assay: Effects on sarcoma 180 solid tumor (Test V); format: in vivo, mouse (ICR); details: Table IV; for T/C (tumor weight ratio treated/control): 15th-21st day
Method: Test materials were prepared in the same manner as in Test IV under (1).
A cell suspension containing 1×10^8 cells per ml. was prepared in the same way as in Test IV under (2). Four week old-ICR mice was innoculated subcutaneously on the back with 0.1 ml. of the suspenstion by means of a syringe.
As in Test IV under (3), a group of 6 animals was used for each concentration of each test material.
Grown tumor tissue was resected on the 15th-21st day of the tumor cell transplantation and weighed. An average for the group of 6 animals was taken for the evaluation. The effect was evaluated on the basis of ratio of the average weight for the treated animals to that of the control animals. […] Ratios (T/C) of 100-71% were rated ineffective (-), of 70-51% plus 1 (+), of 50-21% plus 2 (++), and of 20-0% plus 3 (+++).

Cc1c2oc3c(C)ccc(C(=O)N[C@@H]4C(=O)N[C@H](C(C)C)C(=O)N5CCC[C@H]5C(=O)N(C)CC(=O)N(C)[C@@H](C(C)C)C(=O)O[C@@H]4C)c3nc-2c(C(=O)N[C@@H]2C(=O)N[C@H](C(C)C)C(=O)N3CCC[C@H]3C(=O)N(C)CC(=O)N(C)[C@@H](C(C)C)C(=O)O[C@@H]2C)c(N)c1=O [ACD, actinomycin D] (I: T[dV]P[Sar][NMeV] / II: T[dV]P[Sar][NMeV]; ester I:1-I:C, II:1-II:C; linker I:N-II:N via Actinocin(9to1))
Rating ([1]; 0.1 mg./kg.): +++ (plus 3 (+++) when it was 10-0%)
T/C (TPCV ratio treated/control) ([1]; 0.1 mg./kg. i.p. once a day): 0%

CO[C@@]12[C@H](COC(N)=O)C3=C(C(=O)C(C)=C(N)C3=O)N1C[C@@H]1N[C@@H]12 [MMC, mitomycin C]
activity at 0.1 µg/mL (mouse L-5178Y cells; Mus musculus, L5178Y, 48 h, 0.1 μg./ml., read-out: T/C (cell count treated / no test material)): 47.9%
activity at 0.3 µg/mL (mouse L-5178Y cells; Mus musculus, L5178Y, 48 h, 0.3 μg./ml., read-out: T/C (cell count treated / no test material)): 24.7%
activity at 1 µg/mL (mouse L-5178Y cells; Mus musculus, L5178Y, 48 h, 1.0 μg./ml., read-out: T/C (cell count treated / no test material)): 13.4%
IC50 (mouse L-5178Y cells; Mus musculus, L5178Y, 48 h, Table II, concentration decreasing cells to 1/2 of control, read-out: ID50 (the source's name)): 0.09 µg/mL (≈ 0.269 µM)
Rating ([1]; 0.5 mg./kg.): +++ (plus 3 (+++) when it was 10-0%)
T/C (TPCV ratio treated/control) ([1]; 0.5 mg./kg. i.p. once a day): 0%
Rating ([1]; 1.5 mg./kg.): +++ (plus 3 (+++) when it was 10-0%)
T/C (TPCV ratio treated/control) ([1]; 1.5 mg./kg. i.p. once a day): 0%
Rating (sarcoma 180 solid tumor; 0.5 mg./kg.): - (Ratios (T/C) of 100-71% were rated ineffective (-))
T/C (tumor weight ratio treated/control) (sarcoma 180 solid tumor; 0.5 mg./kg.): 71.0%
T/C (tumor weight ratio treated/control) (sarcoma 180 solid tumor; 1.5 mg./kg.): 32.5% and 50.2%

O=c1[nH]cc(F)c(=O)[nH]1 [Example 5-Fu, 5-fluorouracil]
Rating ([1]; 20 mg./kg.): +++ (plus 3 (+++) when it was 10-0%)
T/C (TPCV ratio treated/control) ([1]; 20 mg./kg. i.p. once a day): 0%
Rating (sarcoma 180 solid tumor; 20 mg./kg.): + (of 70-51% plus 1 (+))
T/C (tumor weight ratio treated/control) (sarcoma 180 solid tumor; 20 mg./kg.): 47.8%

bleomycin [BLM]
T/C (cell count treated / no test material) (mouse L-5178Y cells; 5 μg./ml.): 57.1%
T/C (cell count treated / no test material) (mouse L-5178Y cells; 10 μg./ml.): 46.1%
T/C (cell count treated / no test material) (mouse L-5178Y cells; 100 μg./ml.): 8.8%
ID50 (mouse L-5178Y cells; Table II, concentration decreasing cells to 1/2 of control): 7.8 µg/mL
Rating ([1]; 10 mg./kg.): +++ (plus 3 (+++) when it was 10-0%)
T/C (TPCV ratio treated/control) ([1]; 10 mg./kg. i.p. once a day): 0%
T/C (tumor weight ratio treated/control) (sarcoma 180 solid tumor; 10 mg./kg.): 43.5% and 52.3%

O=P1(N(CCCl)CCCl)NCCCO1 (centres unmarked) [CYP, cyclophosphamide]
Rating ([1]; 33 mg./kg.): +++ (plus 3 (+++) when it was 10-0%)
T/C (TPCV ratio treated/control) ([1]; 33 mg./kg. i.p. once a day): 0%
Rating ([1]; 67 mg./kg.): +++ (plus 3 (+++) when it was 10-0%)
T/C (TPCV ratio treated/control) ([1]; 67 mg./kg. i.p. once a day): 0%
Rating (sarcoma 180 solid tumor; 33 mg./kg.): +++ (of 20-0% plus 3 (+++))
T/C (tumor weight ratio treated/control) (sarcoma 180 solid tumor; 33 mg./kg.): 0%
Rating (sarcoma 180 solid tumor; 67 mg./kg.): +++ (of 20-0% plus 3 (+++))
T/C (tumor weight ratio treated/control) (sarcoma 180 solid tumor; 67 mg./kg.): 0%
